Measured values published in the supplement of paper PMC10307832.

Key:
Test in all cases: relative viability (nuclei count vs DMSO), 5 days (fraction); higher = more cells survive
[1] = compound: C[C@]1(c2nc3c(C(N)=O)cccc3[nH]2)CCCN1 [Veliparib] + CC(=O)c1c(C)c2cnc(Nc3ccc(N4CCNCC4)cn3)nc2n(C2CCCC2)c1=O [Palbociclib] (partner 0.5 µM)
Procedure, shortened: (§1)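 Lung cancer cell lines in 1536-well plates got either a single drug or a fixed anchor-drug dose together with five library-drug doses (not always all listed) in √10 steps, by pin tool, on the day after seeding. Nuclei were counted after 5 days, and relative viability is the treated-to-vehicle ratio of nuclei counts. Values are medians of duplicate plates.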

[2] = compound: C[C@]1(c2nc3c(C(N)=O)cccc3[nH]2)CCCN1 [Veliparib] + Cc1cc(Nc2cc(N3CCN(C)CC3)nc(Sc3ccc(NC(=O)C4CC4)cc3)n2)n[nH]1 [Tozasertib] (partner 0.1 µM)
Procedure, shortened: as §1

[3] = compound: C[C@]1(c2nc3c(C(N)=O)cccc3[nH]2)CCCN1 [Veliparib] + Cc1nc(NC(=O)N2CCC[C@H]2C(N)=O)sc1-c1ccnc(C(C)(C)C(F)(F)F)c1 [Alpelisib] (partner 2 µM)
Procedure, shortened: as §1

[4] = compound: C[C@]1(c2nc3c(C(N)=O)cccc3[nH]2)CCCN1 [Veliparib] + N=C(N)NC(=N)NCCc1ccccc1 [Phenformin] (partner 250 µM)
Procedure, shortened: as §1

Cell Line	relative viability ([1]; first compound 0.06325 µM)	relative viability ([1]; first compound 0.2 µM)	relative viability ([1]; first compound 0.6325 µM)	relative viability ([1]; first compound 2 µM)	relative viability ([2]; first compound 0.02 µM)	relative viability ([2]; first compound 0.06325 µM)	relative viability ([2]; first compound 0.2 µM)	relative viability ([2]; first compound 0.6325 µM)	relative viability ([2]; first compound 2 µM)	relative viability ([3]; first compound 0.02 µM)	relative viability ([3]; first compound 0.06325 µM)	relative viability ([3]; first compound 0.2 µM)	relative viability ([3]; first compound 0.6325 µM)	relative viability ([3]; first compound 2 µM)	relative viability ([4]; first compound 0.02 µM)	relative viability ([4]; first compound 0.06325 µM)	relative viability ([4]; first compound 0.2 µM)	relative viability ([4]; first compound 0.6325 µM)	relative viability ([4]; first compound 2 µM)	relative viability ([1]; first compound 0.02 µM)
EKVX	0.42	0.403	0.373	0.383	0.333	0.362	0.426	0.375	0.37	0.784	0.867	0.85	0.837	0.902	0.194	0.162	0.249	0.221	0.222	
EMC-BAC-2	0.487	0.512	0.486	0.544	0.306	0.29	0.339	0.286	0.286	0.783	0.746	0.74	0.682	0.739	0.442	0.532	0.609	0.484	0.575	0.527
EPLC-272H	0.355	0.35	0.317	0.302	0.273	0.227	0.224	0.2	0.249		0.951	1.1	0.901	0.924	0.304	0.307	0.332	0.292	0.333	
H3255	0.309	0.298	0.304	0.358	0.624	0.664	0.704	0.612	0.538	0.656	0.841	0.679	0.522	0.701	0.365	0.367	0.36	0.322	0.329	0.344
HARA	0.174	0.308	0.327	0.265	0.119	0.117	0.117	0.0991	0.129	0.943	0.769	0.921	0.827	0.822	0.412	0.399	0.48	0.409	0.474	0.352
HCC-15	0.675	0.782	0.703	0.718	0.361	0.356	0.464	0.362	0.354	0.842	0.905	0.863	0.839	0.902		0.457	0.452	0.431	0.472	0.679
HCC-44	0.834	0.996	0.964	1.01	1.04		1.15	0.956	0.919	0.807	0.648	0.844	0.762	0.803	0.157	0.144	0.188	0.17	0.135	1
HCC-78	0.458	0.454	0.456	0.442	0.402	0.381	0.404	0.35	0.404	0.455	0.406	0.387	0.36	0.322	0.688	0.711	0.71	0.758	0.544	0.459
